According to patent publication US9572850B2, “Use of cajeput and Pimenta racemosa extract for treating parasitic infestation of fish” (Mars, Incorporated, priority 2009, dated 2017):

Tests used:
[1] = tested on: single guppies each infected with 2-200 G. turnbulli; assay: Host mortality in Trial 2
Procedure: They were fed on a mixture of live food (Daphnia and Artemia spp.) and Aquarian fish flakes at least twice daily and were maintained at 25±1° C. with a 12 h dark:12 h light cycle.
On D1 (day 1) and D8 (day 8) the number of parasites and their location on the host were recorded by screening fish anaesthetised with 0.02% MS222 using a stereo-microscope and cold light illumination.
In a second trial, single guppies (n=115) each infected with 2-200 G. turnbulli were maintained as in Trial 1 and received treatments of either allyl disulphide, Pimafix®, Melafix® or a Pimafix®/Melafix® combination.

[2] = tested on: Gyrodactylus turnbulli infections on guppies; assay: Allyl disulphide carefully applied: high dose 10 min exposure, followed by low dose 1 h exposure; type: in vivo; details: high dose 10 min exposure, followed by low dose 1 h exposure
G. turnbulli [3] = assay: Trial 2: single parasite, single fish, low dose, 7 day treatment; efficacy of treatments; type: in vivo
Procedure: (§1) Efficacy of treatments in all trials was assessed using the following equation: Et=(L0−Lt)/L0 for Lt<L0, and ΔEt=0 for Lt>L0. Where • L0=parasite load at start of treatment • Lt=parasite load at end of treatment and • Et=efficacy of treatment at time t.
All data were analysed in Minitab vs. 15.

G. turnbulli [4] = details: 0.15 mg/l alone (daily water changes)
Procedure: as §1

| SMILES | increase of host mortality compared to the control [1] | Host mortalities (%) Trial 2 ([1]; single guppies, 7 day treatment) | efficacy (in words) [2] | efficacy (in words) (G. turnbulli [3]; Trial 2, single parasite, single fish, low dose, 7 day treatment) | efficacy (in words) (G. turnbulli [3]; applied at a low dose, comparable to applications used in the aquarium trade) | efficacy at removing parasites (in words) (G. turnbulli [4]) |
| --- | --- | --- | --- | --- | --- | --- |
| C=CCSSCC=C [Allyl disulphide, allyl disulphide] | 15% | 50% | effective only when carefully applied | not effective | not effective |  |
| c1ccc([C@H]2CN3CCSC3=N2)cc1 [Levamisole, levamisole] |  |  |  |  |  | not effective at removing parasites |
